Non-standard residues stand in square brackets, D forms with d. Residues, ends and D or L forms follow the SMILES beside them.
How the values were obtained:
[1] = system: CD1 mice; test: Intestinotrophic activity assessment: small bowel weight in mice; type: in vivo; conditions: for % Increase in small bowel weight: CD1 mice, 2.5 μg peptide s.c. b.i.d. in PBS, sacrificed 10 or 14 days, relative to vehicle only; for intestinotrophic activity compared with the naturally occurring molecule / rGLP-2 (in words): comment on Table 1, CD1 mice; for % Activity (small bowel inducing activity relative to native rat GLP-2(1-33) = 100%): mice, as Example 4
How it was run: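 Female CD1 mice, 6 weeks old (n=3-4/group), given 2.5 μg peptide s.c. b.i.d. in PBS; sacrificed 10 or 14 days later after ≥20 h fast. Small bowel (pylorus to cecum) weighed; percent change versus vehicle mice, also expressed relative to rat GLP-2(1-33) set as 100%.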

[2] = molecular target: T1, DPP-IV (Homo sapiens, UniProt P27487); test: in vitro; conditions: isolated enzyme dpp iv, pH 7.4, % Cleaved by DPP-IV
Experimental: (§3) The mixture was incubated at 37° C. in a circulating water bath for 24 hours. The incubation was quenched by the addition of 50 μl of a solution of diprotin A prepared at a concentration of 4 mg/ml in PBS. Each peptide was tested in duplicate.
(§4) Each sample was analyzed by reverse-phase (RP) HPLC as follows: 90 μl of the quenched incubation mixture was injected onto a Rainin Dynamax 300 Å, C18, 5 micron, 4.6×250 millimeter column. The samples were eluted with 0.1% trifluoroacetic acid (TFA) in water modified with 0.1% acetonitrile using a linear gradient and a flow rate of 1 ml per minute. Sample components were detected at 214 nanometers (nm). The extent of cleavage was measured by relative integration of the peak corresponding to the cleavage product compared to that of the remaining undigested parent peptide.

[3] = system: Fisher 344 wild-type rats; test: Small bowel weight in Fisher 344 wild-type rats; type: in vivo; conditions: 20 μg b.i.d. s.c. in PBS, over vehicle control
Experimental: (§1) In the following experiments the Sprague-Dawley rats were injected s.c. twice daily with rGLP-2 in the Gelatin formulation. The Fisher rats were injected s.c. twice daily with GLP-2 peptides (both rGLP-2, and rGLP-2 analogs) in PBS.

[4] = system: Fisher 334 DPP-IV-rats; test: Small bowel weight in DPP-IV deficient Fisher rats; type: in vivo; conditions: 20 μg b.i.d. s.c. in PBS, vs vehicle
Experimental: (§2) The following experiments were conducted to confirm that the increase in bowel weight seen in experimental animals treated with DPP-IV resistant analogs of GLP-2, compared with animals treated with wild-type GLP-2, was attributable in part to the DPP-IV resistant nature of the molecules. This experiment took advantage of the availability of a DPP-IV deficient rat strain, Fisher 334 DPP-IV-rats. The effect of rGLP-2 injections on small bowel weight in the Fisher DPP-IV deficient rats was compared to that in normal Sprague-Dawley rats.
as §1

[5] = molecular target: human placental DPP-IV (Homo sapiens, UniProt P27487); test: Assay for resistance to dipeptidyl peptidase IV (RP-HPLC of cleavage product); conditions: human placental DPP-IV 0.125 mU, peptide 0.2 mg/ml, PBS pH 7.4, 37° C.
Experimental: as §3, §4

[6] = molecular target: T1, DPP-IV; test: as above; conditions: human, isolated human placental DPP-IV (dipeptidyl peptidase IV)
Experimental: as §3, §4

[7] = system: Sprague-Dawley rats; test: Small bowel weight in normal Sprague-Dawley rats; type: in vivo; conditions: gelatin formulation, vs vehicle
Experimental: as §2, §1

[8] = pH 7.4, % Cleaved by DPP-IV, as Example 3: human placental DPP-IV, 37° C., PBS pH 7.4

T1 sequence (P27487 whole entry): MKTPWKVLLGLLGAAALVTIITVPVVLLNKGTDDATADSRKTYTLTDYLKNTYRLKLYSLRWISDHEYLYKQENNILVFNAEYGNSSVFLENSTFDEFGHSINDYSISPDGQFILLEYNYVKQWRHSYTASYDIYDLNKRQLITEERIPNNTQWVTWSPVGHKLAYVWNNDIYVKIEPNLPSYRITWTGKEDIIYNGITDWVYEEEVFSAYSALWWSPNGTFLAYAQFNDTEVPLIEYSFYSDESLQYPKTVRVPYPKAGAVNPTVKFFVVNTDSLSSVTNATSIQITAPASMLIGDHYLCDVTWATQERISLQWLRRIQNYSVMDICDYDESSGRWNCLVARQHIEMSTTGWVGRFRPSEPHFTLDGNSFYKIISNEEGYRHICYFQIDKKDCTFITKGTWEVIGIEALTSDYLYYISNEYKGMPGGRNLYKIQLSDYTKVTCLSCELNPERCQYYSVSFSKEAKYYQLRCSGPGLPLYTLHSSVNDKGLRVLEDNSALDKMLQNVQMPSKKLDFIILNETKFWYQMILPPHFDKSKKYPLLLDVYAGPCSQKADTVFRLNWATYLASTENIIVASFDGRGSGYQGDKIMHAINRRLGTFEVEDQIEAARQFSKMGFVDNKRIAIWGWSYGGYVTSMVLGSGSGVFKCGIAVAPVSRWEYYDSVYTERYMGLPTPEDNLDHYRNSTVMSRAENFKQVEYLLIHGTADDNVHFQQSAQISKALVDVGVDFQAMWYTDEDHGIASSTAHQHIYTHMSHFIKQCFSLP
human placental DPP-IV, sequence (P27487 whole entry): as above

| Molecule | % Increase in small bowel weight [1] | intestinotrophic activity compared with the naturally occurring molecule / rGLP-2 (in words) [1] | % Activity (small bowel inducing activity relative to native rat GLP-2(1-33) = 100%) [1] | metabolised at 24 h, 0.19 mg/ml [2] | increase in small bowel weight [3] | increase in % change in small bowel weight [4] | cleaved by DPP-IV after the 24 hour incubation [5] | metabolised at 24 h, 0.19 mg/ml [6, 8] | % change in small bowel weight ([7]; 2.5 μg b.i.d. s.c.) | % change in small bowel weight ([7]; 25 μg b.i.d. s.c.) | metabolised at 24 h, 0.19 mg/ml ([6]; pH 7.4, cleaved by DPP-IV after the 24 hour incubation, human placental DPP-IV 0.125 mU, peptide 0.2 mg/ml, PBS pH 7.4, 37° C.) |
| --- | --- | --- | --- | --- | --- | --- | --- | --- | --- | --- | --- |
| CC[C@H](C)[C@H](NC(=O)[C@H](Cc1ccccc1)NC(=O)[C@H](CC(=O)O)NC(=O)[C@H](CCCNC(=N)N)NC(=O)[C@H](C)NC(=O)[C@H](C)NC(=O)[C@H](CC(C)C)NC(=O)[C@H](CC(N)=O)NC(=O)[C@H](CC(=O)O)NC(=O)[C@H](CC(C)C)NC(=O)[C@@H](NC(=O)[C@@H](NC(=O)[C@H](CC(N)=O)NC(=O)[C@H](CCSC)NC(=O)[C@H](CCC(=O)O)NC(=O)[C@H](CC(=O)O)NC(=O)[C@H](CO)NC(=O)[C@H](Cc1ccccc1)NC(=O)[C@H](CO)NC(=O)CNC(=O)[C@H](CC(=O)O)NC(=O)CNC(=O)[C@@H](N)Cc1c[nH]cn1)[C@@H](C)O)[C@@H](C)CC)C(=O)N[C@@H](CC(N)=O)C(=O)N[C@@H](Cc1c[nH]c2ccccc12)C(=O)N[C@@H](CC(C)C)C(=O)N[C@H](C(=O)N[C@@H](CCC(N)=O)C(=O)N[C@H](C(=O)N[C@@H](CCCCN)C(=O)N[C@H](C(=O)N[C@H](C(=O)N[C@@H](CC(=O)O)C(=O)O)[C@@H](C)O)[C@@H](C)CC)[C@@H](C)O)[C@@H](C)CC [[Gly2]hGLP-2(1-33)] | 59% | substantially increased | 300% | 0% | – | – | – | – | – | – | – |
| H-HGDGSFSDEMNTILDNLATRDFINWLIQTKITD-OH [[Gly2]ratGLP-2(1-33)] | 70% | greatly enhanced | 196% | – | 75-85% | 50-60% | No cleavage products were detected | 0% | – | – | – |
| CC[C@H](C)[C@H](NC(=O)[C@H](Cc1ccccc1)NC(=O)[C@H](CC(=O)O)NC(=O)[C@H](CCCNC(=N)N)NC(=O)[C@@H](NC(=O)[C@H](C)NC(=O)[C@H](CC(C)C)NC(=O)[C@H](CC(N)=O)NC(=O)[C@H](CC(=O)O)NC(=O)[C@H](CC(C)C)NC(=O)[C@@H](NC(=O)[C@@H](NC(=O)[C@H](CC(N)=O)NC(=O)[C@H](CCSC)NC(=O)[C@H](CCC(=O)O)NC(=O)[C@H](CC(=O)O)NC(=O)[C@H](CO)NC(=O)[C@H](Cc1ccccc1)NC(=O)[C@H](CO)NC(=O)CNC(=O)[C@H](CC(=O)O)NC(=O)[C@@H](C)NC(=O)[C@@H](N)Cc1c[nH]cn1)[C@@H](C)O)[C@@H](C)CC)[C@@H](C)O)C(=O)N[C@@H](CC(N)=O)C(=O)N[C@@H](Cc1c[nH]c2ccccc12)C(=O)N[C@@H](CC(C)C)C(=O)N[C@H](C(=O)N[C@@H](CCC(N)=O)C(=O)N[C@H](C(=O)N[C@@H](CCCCN)C(=O)N[C@H](C(=O)N[C@H](C(=O)N[C@@H](CC(=O)O)C(=O)O)[C@@H](C)O)[C@@H](C)CC)[C@@H](C)O)[C@@H](C)CC [[DAla2]ratGLP-2(1-33)] (H-H[dA]DGSFSDEMNTILDNLATRDFINWLIQTKITD-OH) | 86% | – | 210% | – | – | – | No cleavage products were detected | 0% | – | – | – |
| H-HADGSFSDEMNTILDNLATRDFINWLIQTKITD-OH [ratGLP-2(1-33), reference compound] | 45% | – | 100% | – | – | 40-50% | – | 58% | no % change | no % change | 22% |
